Consider one molecule from patent publication US6716596B2, “Agents for replacement of NAD+/NADH system in enzymatic reactions” (The Regents of the University of California, priority 2001, dated 2004).

The test is described as follows: regioselective reduction of biomimics with catalyst precursor (2) and sodium formate, followed by 1H NMR. As to conditions: disappearance of pyridinium signals vs [(CH3)4N]OTf during first 2 hours; compound (1a) set to 1.0. As for the experimental part: The relative rates, seen tabulated in FIG. 1C, were determined by observing disappearance of the pyridinium signals versus an internal standard, [(CH3)4N]OTf (tetramethylammonium triflate), during the first 2 hours, where the relative rate of 1-benzylnicotinamide triflate (1) was set to 1.0. The turnover frequencies were calculated by the formation of mmol of product/mmol of catalyst/hour. The total turnover number in 24 hours was ˜95 for all substrates that gave product. The reactions were conducted in presilylated J. Young NMR tubes and were followed by ^1H NMR.
The electronic effect of differently substituted nicotinamide substrates was determined by their relative rates. The relative rates of these compounds were determined by observing the disappearance of the pyridinium signals compared to interval standard, [(CH3)4N]OTf, during the first 2 hours, where the relative rate of compound (1a) was 1.0.
In a typical reaction, a J. Young NMR tube was charged, biomimic substrates (1a)-(1i) (1.0 mol), 2 (1% mol), and HCO2Na (1.1 mol) used as the hydride source and a Schlenk techniques were conducted to deoxygenate the solid mixture. A diluted solvent was added to these solids for compounds (1a)-(1i), the solvent was D2O-THF-d8 (1=1 0.75 mL, deoxygenated), and the NMR tube was placed in a liquid nitrogen bath. The contents were further degassed by two successive freeze-pump-thaw cycles. After thawing out the reaction mixture, the J. Young NMR tube was immediately put in a salted ice-bath and covered with aluminum foil. The reaction was then followed by ^1H NMR spectroscopy at 26° C. temperature, after a speedy thawing out.
The given relative rates and turnover frequencies were determined by decreasing integration of the corresponding pyridinium salts measured against an internal standard, (CH3)4N(OTf), during the first 2 h of the reaction. The ratios of the 1,4- and 1,6-dihydronicotinamide derivatives of compounds (1a), (1b) and (1d)-(1g) were obtained by comparison of the resonance signals with those of authentic samples, where the diagnostic signal is the resonance for —CH2Ph moiety which can be identified unambiguously in the ^1H NMR spectrum.

Counter-ions that a name gives are not always drawn.

`NC(=O)c1ccc[n+](Cc2ccccc2)c1` [Compound 1a, 1-Benzylnicotinamide, Triflate Salt]: the “relative rate of regioselective reduction” value is listed as 1.0.
